# Results reported in US10722501B2 (BAYER AKTIENGESELLSCHAFT, priority 2016, dated 2020).
# pIC50: −log10 of the molar value.
# Target: T1, recombinant full-length human prolyl endopeptidase (PREP) (Homo sapiens, UniProt P48147)
# T1 construct: To recombinant full-length human prolyl endopeptidase (PREP, R&D-Systems, 4308-SE); purchased R&D-Systems 4308-SE
# T1 sequence (P48147 1-710): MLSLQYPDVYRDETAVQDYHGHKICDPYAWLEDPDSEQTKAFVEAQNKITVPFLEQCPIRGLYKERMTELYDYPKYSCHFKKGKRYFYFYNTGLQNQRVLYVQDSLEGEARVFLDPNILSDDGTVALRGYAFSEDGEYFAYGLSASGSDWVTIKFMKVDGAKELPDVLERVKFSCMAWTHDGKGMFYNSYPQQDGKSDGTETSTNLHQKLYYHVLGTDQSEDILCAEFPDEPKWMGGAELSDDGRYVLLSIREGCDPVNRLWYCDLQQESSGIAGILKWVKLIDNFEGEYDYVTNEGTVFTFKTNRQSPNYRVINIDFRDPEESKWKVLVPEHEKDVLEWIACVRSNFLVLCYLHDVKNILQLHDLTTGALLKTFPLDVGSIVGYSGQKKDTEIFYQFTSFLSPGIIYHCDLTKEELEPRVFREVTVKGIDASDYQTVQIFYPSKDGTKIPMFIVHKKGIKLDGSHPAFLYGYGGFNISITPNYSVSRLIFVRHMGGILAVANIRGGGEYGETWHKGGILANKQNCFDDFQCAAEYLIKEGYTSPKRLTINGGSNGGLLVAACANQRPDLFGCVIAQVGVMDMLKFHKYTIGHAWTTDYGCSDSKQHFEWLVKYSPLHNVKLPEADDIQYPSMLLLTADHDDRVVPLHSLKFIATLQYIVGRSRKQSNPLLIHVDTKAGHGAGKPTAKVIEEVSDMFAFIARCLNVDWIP
# Assay: Biochemical human prolyl endopeptidase (PREP) assay with fluorescently labelled substrate
# Conditions: substrate Z-Gly-Pro-AMC 50 μM, 32° C., 60 min; some as mean values from multiple independent determinations
# Procedure, shortened: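 0.4 nM (final, example) recombinant PREP in pH 7.5 Tris buffer with EDTA, GSH, BSA and Brij-35; compounds at 1 nM to 30 μM. Reaction started with 50 μM Z-Gly-Pro-AMC and followed by fluorescence (ex 360/em 465 nm) at 32° C for 60 min. IC50 interpolated from percent activity based on initial slopes.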
row,Structure (SMILES),pIC50
1,"O=C(C1CCCc2nn(Cc3ccc(Cl)nc3)c(=O)n21)N1CCCC1 (single isomer, unassigned) [Example 32, (5RS)-2-[(6-Chloropyridin-3-yl)methyl]-5-(pyrrolidin-1-ylcarbonyl)-5,6,7,8-tetrahydro[1,2,4]triazolo[4,3-a]pyridin-3(2H)-one]",8.83
2,"O=C([C@@H]1CCCc2nn(Cc3ccc(Cl)cn3)c(=O)n21)N1CC[C@H](F)C1 [Example 508, (5S)-2-[(5-Chloropyridin-2-yl)methyl]-5-{[(3S)-3-fluoropyrrolidin-1-yl]carbonyl}-5,6,7,8-tetrahydro[1,2,4]triazolo[4,3-a]pyridin-3(2H)-one]",9.04
3,"O=C([C@@H]1CCCc2nn(Cc3ccc(Br)cc3F)c(=O)n21)N1CC[C@H](F)C1 [Example 214, (5S)-2-(4-Bromo-2-fluorobenzyl)-5-{[(3S)-3-fluoropyrrolidin-1-yl]carbonyl}-5,6,7,8-tetrahydro[1,2,4]triazolo[4,3-a]pyridin-3(2H)-one]",9.70
4,"Cc1ccc(Cn2nc3n(c2=O)C(C(=O)N2CCCC2)CC(C(F)(F)F)C3)cc1 (single isomer, unassigned) [Example 225, (5RS,7RS)-2-(4-Methylbenzyl)-5-(pyrrolidin-1-ylcarbonyl)-7-(trifluoromethyl)-5,6,7,8-tetrahydro[1,2,4]triazolo[4,3-a]pyridin-3(2H)-one]",9.64
5,"Cc1ccc(Cn2nc3n(c2=O)C(C(=O)N2CC(O)C2)CCC3)cc1 (racemic) [Example 120, (5RS)-5-[(3-Hydroxyazetidin-1-yl)carbonyl]-2-(4-methylbenzyl)-5,6,7,8-tetrahydro[1,2,4]triazolo[4,3-a]pyridin-3(2H)-one]",8.02
6,"Cc1ccc(Cn2nc3n(c2=O)[C@H](C(=O)N2CC(F)(F)C(F)(F)C2)CCC3)cc1 [Example 145, (5S)-2-(4-Methylbenzyl)-5-[(3,3,4,4-tetrafluoropyrrolidin-1-yl)carbonyl]-5,6,7,8-tetrahydro[1,2,4]triazolo[4,3-a]pyridin-3(2H)-one]",7.90
7,"O=C(C1CCCc2nn(Cc3ccc4c(c3)CCCC4)c(=O)n21)N1CCCC1 (racemic) [Example 88, (5RS)-5-(Pyrrolidin-1-ylcarbonyl)-2-(5,6,7,8-tetrahydronaphthalen-2-ylmethyl)-5,6,7,8-tetrahydro[1,2,4]triazolo[4,3-a]pyridin-3(2H)-one]",9.57
8,"COc1ccc(Cn2nc3n(c2=O)C(C(=O)N2CCCC2)CCC3)cc1Cl (racemic) [Example 46, (5RS)-2-(3-Chloro-4-methoxybenzyl)-5-(pyrrolidin-1-ylcarbonyl)-5,6,7,8-tetrahydro[1,2,4]triazolo[4,3-a]pyridin-3(2H)-one]",9.02
9,"O=C([C@@H]1CCCc2nn(Cc3ccc(F)cc3)c(=O)n21)N1CCC(F)(F)C1 [Example 451, (5S)-5-[(3,3-Difluoropyrrolidin-1-yl)carbonyl]-2-(4-fluorobenzyl)-5,6,7,8-tetrahydro[1,2,4]triazolo[4,3-a]pyridin-3(2H)-one]",8.96
10,"O=C([C@@H]1CCC(O)c2nn(Cc3ccc(Cl)cn3)c(=O)n21)N1CC[C@H](F)C1 (mixture of isomers) [Example 547, (5S,8RS)-2-[(5-Chloropyridin-2-yl)methyl]-5-{[(3S)-3-fluoropyrrolidin-1-yl]carbonyl}-8-hydroxy-5,6,7,8-tetrahydro[1,2,4]triazolo[4,3-a]pyridin-3(2H)-one]",9.37
11,"O=C([C@@H]1CCCc2nn(Cc3ccc(Cl)cn3)c(=O)n21)N1CCC(F)(F)C1 [Example 377, (5S)-2-[(5-Chloropyridin-2-yl)methyl]-5-[(3,3-difluoropyrrolidin-1-yl)carbonyl]-5,6,7,8-tetrahydro[1,2,4]triazolo[4,3-a]pyridin-3(2H)-one]",8.16
12,"O=C(C1CCCc2nn(Cc3ccc4c(c3)CCC4)c(=O)n21)N1CCCC1 (racemic) [Example 11, (5RS)-2-(2,3-Dihydro-1H-inden-5-ylmethyl)-5-(pyrrolidin-1-ylcarbonyl)-5,6,7,8-tetrahydro[1,2,4]triazolo[4,3-a]pyridin-3(2H)-one]",9.15
13,"CC1CCC(C(=O)N2CC[C@H](F)C2)n2c1nn(Cc1ccc(C(F)(F)F)nc1)c2=O (single isomer, unassigned) [Example 221]",6.01

# The remaining lines, values ahead:
row,pIC50,Structure (SMILES)
1,8.64,"O=C([C@@H]1CCCc2nn(Cc3csc(C(F)(F)F)n3)c(=O)n21)N1CC[C@H](F)C1 [Example 365, (5S)-5-{[(3S)-3-Fluoropyrrolidin-1-yl]carbonyl}-2-{[2-(trifluoromethyl)-1,3-thiazol-4-yl]methyl}-5,6,7,8-tetrahydro[1,2,4]triazolo[4,3-a]pyridin-3(2H)-one]"
2,9.09,"O=C([C@@H]1CCCc2nn(Cc3ccc(C(F)(F)F)c(F)c3)c(=O)n21)N1CCC(F)(F)C1 [Example 470, (5S)-5-[(3,3-Difluoropyrrolidin-1-yl)carbonyl]-2-[3-fluoro-4-(trifluoromethyl)benzyl]-5,6,7,8-tetrahydro[1,2,4]triazolo[4,3-a]pyridin-3(2H)-one]"
3,6.87,"O=C([C@@H]1CCCc2nn(Cc3cc(C(F)(F)F)c(Cl)cn3)c(=O)n21)N1CC(O)C1 [Example 373, (5S)-2-{[5-Chloro-4-(trifluoromethyl)pyridin-2-yl]methyl}-5-[(3-hydroxyazetidin-1-yl)carbonyl]-5,6,7,8-tetrahydro[1,2,4]triazolo[4,3-a]pyridin-3(2H)-one]"
4,8.36,"O=C([C@@H]1CCCc2nn(Cc3nnc(C(F)(F)F)o3)c(=O)n21)N1CC[C@H](F)C1 [Example 544, (5S)-5-{[(3S)-3-Fluoropyrrolidin-1-yl]carbonyl}-2-{[5-(trifluoromethyl)-1,3,4-oxadiazol-2-yl]methyl}-5,6,7,8-tetrahydro[1,2,4]triazolo[4,3-a]pyridin-3(2H)-one]"
5,9.43,"COc1ccc(Cn2nc3n(c2=O)[C@H](C(=O)N2C[C@@H](F)[C@@H](F)C2)CCC3)cc1 [Example 453, (5S)-5-{[(3R,4S)-3,4-Difluoropyrrolidin-1-yl]carbonyl}-2-(4-methoxybenzyl)-5,6,7,8-tetrahydro[1,2,4]triazolo[4,3-a]pyridin-3(2H)-one]"
6,7.74,"Cc1cc(Cn2nc3n(c2=O)C(C(=O)N2CC(F)C2)CCC3)on1 (racemic) [Example 417, (5RS)-5-[(3-Fluoroazetidin-1-yl)carbonyl]-2-[(3-methyl-1,2-oxazol-5-yl)methyl]-5,6,7,8-tetrahydro[1,2,4]triazolo[4,3-a]pyridin-3(2H)-one]"
7,8.33,"O=C([C@@H]1CCCc2nn(Cc3cncc(Cl)c3)c(=O)n21)N1CC(F)C1 [Example 436, (5S)-2-[(5-Chloropyridin-3-yl)methyl]-5-[(3-fluoroazetidin-1-yl)carbonyl]-5,6,7,8-tetrahydro[1,2,4]triazolo[4,3-a]pyridin-3(2H)-one]"
8,6.01,"O=C(C1CC(C(F)(F)F)Cc2nn(Cc3ccc(C(F)(F)F)nc3)c(=O)n21)N1CC(F)C(F)C1 (single isomer, unassigned) [Example 583]"
9,7.44,O=C([C@@H]1CCCc2nn(Cc3ncc(Cl)cc3F)c(=O)n21)N1CC(F)C(F)C1 (some centres unmarked) [Example 549]
10,8.64,"O=C([C@@H]1CCCc2nn(Cc3cncc(C(F)(F)F)c3)c(=O)n21)N1C[C@@H](F)[C@@H](F)C1 [Example 578, (5S)-5-{[(3R,4S)-3,4-Difluoropyrrolidin-1-yl]carbonyl}-2-{[5-(trifluoromethyl)pyridin-3-yl]methyl}-5,6,7,8-tetrahydro[1,2,4]triazolo[4,3-a]pyridin-3(2H)-one]"
